From patent US20080058352A1, “Fungicidal Mixtures” (priority 2004, published 2008)

Tested on: Pyrenophora teres
Experiment: activity against net blotch of barley caused by Pyrenophora teres, 5 day protective application
Format: in vivo, Pyrenophora [syn. Drechslera] teres on barley seedlings
Conditions: individual active compound, untreated control 90% infection
Procedure: The active compounds, separately or jointly, were prepared as a stock solution comprising 25 mg of active compound which was made up to 10 ml using a mixture of acetone and/or DMSO and the emulsifier Uniperol® EL (wetting agent having an emulsifying and dispersing action based on ethoxylated alkylphenols) in a ratio by volume of solvent/emulsifier of 99:1. The mixture was then made up to 100 ml with water. This stock solution was diluted with the solvent/emulsifier/water mixture described to give the concentration of active compound stated below. Alternatively, the active compounds were employed as a commercial finished formulation and diluted with water to the stated concentration of active compound.
Use example—activity against net blotch of barley caused by Pyrenophora teres, 5 day protective application.
Leaves of potted barley seedlings were sprayed to runoff point with an aqueous suspension having the concentration of active compound stated below. 5 days after the application, the test plants were inoculated with an aqueous spore suspension of Pyrenophora [syn. Drechslera] teres, the net blotch pathogen. The test plants were then placed in a greenhouse at temperatures between 20 and 24° C. and 95 to 100% relative atmospheric humidity. After 6 days, the extent of the development of the disease was determined visually in % infection of the total leaf area.
The visually determined percentages of infected leaf areas were converted into efficacies in % of the untreated control:
The efficacy (E) is calculated as follows using Abbot's formula:
E=(1−α/β)·100 • α corresponds to the fungal infection of the treated plants in % and • β corresponds to the fungal infection of the untreated (control) plants in %
An efficacy of 0 means that the infection level of the treated plants corresponds to that of the untreated control plants; an efficacy of 100 means that the treated plants were not infected.
The expected efficacies of mixtures of active compounds were determined using Colby's formula (Colby, S. R. “Calculating synergistic and antagonistic responses of herbicide combinations”, Weeds, 15, 20-22, 1967) and compared with the observed efficacies.
E=x+y−x·y/100 • E expected efficacy, expressed in % of the untreated control, when the using the mixture of the active compounds A and B at the concentrations a and b • x efficacy, expressed in % of the untreated control, when using the active compound A at the concentration a • y efficacy, expressed in % of the untreated control, when using the active compound B at the concentration b

SMILES | Efficacy in % of the untreated control (0.25 ppm in the spray liquor) | Efficacy in % of the untreated control (1 ppm in the spray liquor) | Efficacy in % of the untreated control (4 ppm in the spray liquor)
CC1CCN(c2c(-c3c(F)cc(F)cc3F)c(Cl)nc3ncnn23)CC1 [I, 5-chloro-7-(4-methylpiperidin-1-yl)-6-(2,4,6-trifluorophenyl)[1,2,4]triazolo[1,5-a]pyrimidine] | 0% | 0% | 33%
CC(C)CC(C)c1sccc1NC(=O)c1cn(C)nc1C(F)(F)F (stereo not drawn) [IIA.11, penthiopyrad] | 0% | 33% | 56%
